Laboratory results taken from the supplement of paper PMC10307832.

Columns and labels:
Test in all cases: relative viability (nuclei count vs DMSO), 5 days (fraction); higher = more cells survive
Decitabine + Luminespib = compound: Nc1ncn([C@H]2C[C@H](O)[C@@H](CO)O2)c(=O)n1 [Decitabine] + CCNC(=O)c1noc(-c2cc(C(C)C)c(O)cc2O)c1-c1ccc(CN2CCOCC2)cc1 [Luminespib] (partner 0.01 µM)
In short: (§1)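 A single step with final 0.05% Triton X-100, 1% formaldehyde and 1 ug/ml Hoechst fixed the cells and stained nuclei 5 days after treatment. Lung cancer cell lines in 1536-well plates had been treated by pin tool the day after seeding with one drug alone or a fixed anchor-drug dose plus five library-drug doses (not always all listed) in √10 steps, and nuclei were counted on 4× images. Relative viability is the ratio of nuclei in treated wells to nuclei in vehicle wells, taken as the median of duplicate plates.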

Decitabine + Phenformin = compound: Nc1ncn([C@H]2C[C@H](O)[C@@H](CO)O2)c(=O)n1 [Decitabine] + N=C(N)NC(=N)NCCc1ccccc1 [Phenformin] (partner 250 µM)
In short: as §1

Halofuginone + OSI-027 = compound: O=C(C[C@H]1NCCC[C@@H]1O)Cn1cnc2cc(Br)c(Cl)cc2c1=O (racemic) [Halofuginone] + COc1cccc2cc(-c3nc([C@H]4CC[C@H](C(=O)O)CC4)n4ncnc(N)c34)[nH]c12 [OSI-027] (partner 0.5 µM)
In short: as §1

[1] = compound: O=C(C[C@H]1NCCC[C@@H]1O)Cn1cnc2cc(Br)c(Cl)cc2c1=O (racemic) [Halofuginone] + C[C@@H](Oc1cc(-c2cnn(C3CCNCC3)c2)cnc1N)c1c(Cl)ccc(F)c1Cl [Crizotinib] (partner 1 µM)
In short: as §1

Cell Line | relative viability (Decitabine + Luminespib; first compound 0.04 µM) | relative viability (Decitabine + Luminespib; first compound 0.1265 µM) | relative viability (Decitabine + Luminespib; first compound 0.4 µM) | relative viability (Decitabine + Luminespib; first compound 1.265 µM) | relative viability (Decitabine + Luminespib; first compound 4 µM) | relative viability (Decitabine + Phenformin; first compound 0.04 µM) | relative viability (Decitabine + Phenformin; first compound 0.1265 µM) | relative viability (Decitabine + Phenformin; first compound 0.4 µM) | relative viability (Decitabine + Phenformin; first compound 1.265 µM) | relative viability (Decitabine + Phenformin; first compound 4 µM) | relative viability (Halofuginone + OSI-027; first compound 0.001 µM) | relative viability (Halofuginone + OSI-027; first compound 0.003162 µM) | relative viability (Halofuginone + OSI-027; first compound 0.01 µM) | relative viability (Halofuginone + OSI-027; first compound 0.03162 µM) | relative viability (Halofuginone + OSI-027; first compound 0.1 µM) | relative viability ([1]; first compound 0.001 µM) | relative viability ([1]; first compound 0.003162 µM) | relative viability ([1]; first compound 0.01 µM) | relative viability ([1]; first compound 0.03162 µM) | relative viability ([1]; first compound 0.1 µM)
NCI-H1651 | 0.942 | 0.844 | 0.828 | 0.69 | 0.658 | 0.331 | 0.345 | 0.383 | 0.287 | 0.318 | 0.825 | 0.701 | 0.655 | 0.665 | 0.382 | 0.922 | 0.899 | 0.88 | 0.848 | 0.798
NCI-H1666 | 0.927 | 0.964 | 0.815 | 0.674 | 0.726 | 0.617 | 0.568 | 0.522 | 0.506 | 0.593 | 1.01 | 0.869 | 0.766 | 0.955 | 0.852 | 1.02 | 1.02 | 0.948 | 0.913 | 0.582
NCI-H1734 | 0.182 | 0.172 | 0.165 | 0.192 | 0.157 | 0.348 | 0.38 | 0.382 | 0.276 | 0.274 | 0.579 | 0.587 | 0.543 | 0.554 | 0.501 | 0.738 | 0.718 | 0.67 | 0.659 | 0.277
NCI-H1755 | 0.451 | 0.528 | 0.441 | 0.394 | 0.278 | 0.625 | 0.629 | 0.43 | 0.442 | 0.465 | 0.76 | 0.788 | 0.677 | 0.753 | 0.627 | 0.916 | 0.884 | 0.806 | 0.869 | 0.348
NCI-H1792 | 0.565 | 0.446 | 0.465 | 0.428 | 0.311 | 0.445 | 0.275 | 0.707 | 0.262 | 0.175 | 0.71 | 0.749 | 0.801 | 0.737 | 0.592 | 1.04 | 0.973 | 0.985 | 0.959 | 1.03
NCI-H1915 | 0.331 | 0.465 | 0.267 | 0.186 | 0.219 | 0.291 | 0.294 | 0.274 | 0.242 | 0.26 | 0.616 | 0.62 | 0.643 | 0.549 | 0.544 | 0.897 | 0.954 | 0.813 | 0.894 | 0.73
NCI-H1944 | 0.643 | 0.645 | 0.633 | 0.389 | 0.369 | 0.191 | 0.21 | 0.227 | 0.166 | 0.199 | 0.422 | 0.431 | 0.447 | 0.404 | 0.343 | 1.1 | 1.19 | 1.11 | 1.05 | 0.803
NCI-H1975 | 0.198 | 0.161 | 0.162 | 0.174 | 0.142 | 0.281 | 0.27 | 0.214 | 0.229 | 0.197 | 0.751 | 0.744 | 0.67 | 0.473 | 0.348 | 1.12 | 0.91 | 1.01 | 0.628 | 0.184
NCI-H1993 | 0.725 | 0.826 | 0.787 | 0.696 | 0.674 | 0.558 | 0.494 | 0.507 | 0.504 | 0.478 | 0.56 | 0.592 | 0.564 | 0.47 | 0.523 | 1.05 | 0.921 | 0.95 | 0.89 | 0.588
NCI-H2009 | 0.929 | 0.68 | 0.54 | 0.328 | 0.348 | 0.433 | 0.4 | 0.333 | 0.282 | 0.286 | 0.835 | 0.795 | 0.655 | 0.468 | 0.264 | 1.15 | 1.09 | 1.06 | 0.923 | 0.668
NCI-H2023 | 0.317 | 0.386 | 0.153 | 0.138 | 0.14 | 0.31 | 0.346 | 0.222 | 0.163 | 0.161 | 0.488 | 0.421 | 0.36 | 0.3 | 0.0722 | 0.847 | 0.649 | 0.701 | 0.493 | 0.0689
NCI-H2085 | 0.436 | 0.404 | 0.323 | 0.372 | 0.344 | 0.516 | 0.51 | 0.381 | 0.361 | 0.394 | 0.886 | 0.832 | 0.755 | 0.721 | 0.523 | 0.994 | 0.82 | 0.776 | 0.831 | 0.52
NCI-H2087 | 0.172 | 0.175 | 0.204 | 0.135 | 0.158 | 0.411 | 0.359 | 0.291 | 0.242 | 0.25 | 0.439 | 0.593 | 0.528 | 0.484 | 0.424 | 0.738 | 0.902 | 0.77 | 0.851 | 0.851
NCI-H2126 | 0.811 | 0.723 | 0.547 | 0.492 | 0.485 | 0.478 | 0.483 | 0.423 | 0.451 | 0.468 | 0.727 | 0.604 | 0.695 | 0.612 | 0.549 | 1.02 | 1.03 | 0.998 | 1.02 | 0.987
NCI-H2170 | 0.645 | 0.641 | 0.488 | 0.286 | 0.253 | 0.345 | 0.365 | 0.291 | 0.269 | 0.282 | 0.699 | 0.714 | 0.738 | 0.651 | 0.659 | 1.27 | 1.34 | 1.21 | 1.21 | 1
NCI-H2228 | 0.102 | 0.134 | 0.116 | 0.148 | 0.165 | 0.271 | 0.252 | 0.103 | 0.154 | 0.192 | 0.741 | 0.647 | 0.465 | 0.371 | 0.198 | 0.45 | 0.658 | 0.411 | 0.218 | 0.177
